Holding throughout (type): biochemical
In one experiment the target is T1, PI3Kδ (Homo sapiens, UniProt O00329).
T1 construct: made in house
The experiment is described as follows: TR-FRET enzymatic activity assay, PI3Kδ. The following applies: recombinant heterodimeric PI3Kδ 25-50 pM, 2× Km ATP, 30 minutes at 25°C. Here is the method: (§1) The compounds of formula (I) were characterized for their enzymatic activity against the PI3K isoforms. The activities were measured using a time-resolved fluorescence resonance energy transfer (TR-FRET) assay.

A further experiment concerns the target T2, PI3Kβ (Homo sapiens, UniProt P42338).
T2 construct: made in house
The experiment is described as follows: TR-FRET enzymatic activity assay, PI3Kβ. The following applies: recombinant heterodimeric PI3Kβ 25-50 pM, 2× Km ATP, 30 minutes at 25°C. Here is the method: as §1

For the next experiment, the target named is T3, PI3Kγ (Homo sapiens, UniProt P48736).
T3 construct: made in house
T3 sequence (P48736 whole entry): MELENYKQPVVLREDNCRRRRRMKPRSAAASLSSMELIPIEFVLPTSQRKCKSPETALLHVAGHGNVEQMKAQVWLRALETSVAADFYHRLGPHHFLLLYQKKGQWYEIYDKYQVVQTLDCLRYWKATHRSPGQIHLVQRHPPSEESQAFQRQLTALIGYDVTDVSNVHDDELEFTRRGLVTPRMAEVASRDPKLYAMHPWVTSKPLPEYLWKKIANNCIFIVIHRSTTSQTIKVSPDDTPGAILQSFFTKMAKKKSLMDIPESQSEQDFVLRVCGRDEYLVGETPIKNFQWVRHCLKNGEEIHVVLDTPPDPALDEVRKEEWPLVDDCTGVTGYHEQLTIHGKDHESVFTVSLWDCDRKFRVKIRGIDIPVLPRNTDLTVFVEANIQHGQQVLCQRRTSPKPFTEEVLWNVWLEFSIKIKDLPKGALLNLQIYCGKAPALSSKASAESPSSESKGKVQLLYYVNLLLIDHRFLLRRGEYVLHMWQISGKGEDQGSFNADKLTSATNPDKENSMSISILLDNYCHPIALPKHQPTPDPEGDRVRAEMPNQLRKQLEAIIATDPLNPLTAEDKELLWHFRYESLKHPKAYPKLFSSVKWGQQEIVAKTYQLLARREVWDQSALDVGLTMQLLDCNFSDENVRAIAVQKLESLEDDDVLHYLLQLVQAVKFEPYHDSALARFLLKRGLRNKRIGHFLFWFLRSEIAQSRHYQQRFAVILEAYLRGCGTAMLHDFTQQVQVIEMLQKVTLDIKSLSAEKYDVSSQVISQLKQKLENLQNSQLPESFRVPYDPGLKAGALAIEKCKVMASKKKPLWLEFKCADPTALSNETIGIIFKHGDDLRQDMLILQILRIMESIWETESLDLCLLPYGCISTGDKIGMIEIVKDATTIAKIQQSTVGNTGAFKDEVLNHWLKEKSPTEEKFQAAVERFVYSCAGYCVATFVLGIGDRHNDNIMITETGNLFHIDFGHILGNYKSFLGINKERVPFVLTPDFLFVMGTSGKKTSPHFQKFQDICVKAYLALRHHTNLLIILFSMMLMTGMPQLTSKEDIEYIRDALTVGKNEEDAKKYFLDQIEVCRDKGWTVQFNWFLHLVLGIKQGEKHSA
T3 sequence (Q8WYR1 whole entry partner): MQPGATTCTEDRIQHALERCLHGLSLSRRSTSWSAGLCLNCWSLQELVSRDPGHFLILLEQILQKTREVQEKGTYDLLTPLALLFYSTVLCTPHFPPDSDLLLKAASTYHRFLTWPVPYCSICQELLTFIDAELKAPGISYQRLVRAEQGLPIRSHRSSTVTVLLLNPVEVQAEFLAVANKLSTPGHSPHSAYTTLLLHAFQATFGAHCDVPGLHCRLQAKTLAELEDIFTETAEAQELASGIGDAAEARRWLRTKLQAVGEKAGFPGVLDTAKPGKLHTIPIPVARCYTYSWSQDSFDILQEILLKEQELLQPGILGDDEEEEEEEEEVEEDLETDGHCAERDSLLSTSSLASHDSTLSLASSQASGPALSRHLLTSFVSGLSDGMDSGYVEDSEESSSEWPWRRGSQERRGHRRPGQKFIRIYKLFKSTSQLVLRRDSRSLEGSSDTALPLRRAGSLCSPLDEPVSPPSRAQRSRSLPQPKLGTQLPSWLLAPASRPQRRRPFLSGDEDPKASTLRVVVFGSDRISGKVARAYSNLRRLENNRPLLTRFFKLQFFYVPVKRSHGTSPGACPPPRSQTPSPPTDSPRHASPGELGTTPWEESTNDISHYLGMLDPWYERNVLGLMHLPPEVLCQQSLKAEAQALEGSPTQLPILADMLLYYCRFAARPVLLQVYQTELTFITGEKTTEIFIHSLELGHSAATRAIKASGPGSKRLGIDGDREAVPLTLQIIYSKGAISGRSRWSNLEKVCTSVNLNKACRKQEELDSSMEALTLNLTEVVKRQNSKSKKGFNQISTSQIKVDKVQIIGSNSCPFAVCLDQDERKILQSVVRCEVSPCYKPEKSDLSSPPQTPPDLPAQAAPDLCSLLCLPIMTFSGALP
Briefly: TR-FRET enzymatic activity assay, PI3Kγ. The following applies: recombinant heterodimeric PI3Kγ 2 nM, 2× Km ATP, 30 minutes at 25°C. Here is the method:
as §1

pIC50: −log10 of the molar value. Some results are limits rather than exact numbers.

T1 sequence (O00329 whole entry): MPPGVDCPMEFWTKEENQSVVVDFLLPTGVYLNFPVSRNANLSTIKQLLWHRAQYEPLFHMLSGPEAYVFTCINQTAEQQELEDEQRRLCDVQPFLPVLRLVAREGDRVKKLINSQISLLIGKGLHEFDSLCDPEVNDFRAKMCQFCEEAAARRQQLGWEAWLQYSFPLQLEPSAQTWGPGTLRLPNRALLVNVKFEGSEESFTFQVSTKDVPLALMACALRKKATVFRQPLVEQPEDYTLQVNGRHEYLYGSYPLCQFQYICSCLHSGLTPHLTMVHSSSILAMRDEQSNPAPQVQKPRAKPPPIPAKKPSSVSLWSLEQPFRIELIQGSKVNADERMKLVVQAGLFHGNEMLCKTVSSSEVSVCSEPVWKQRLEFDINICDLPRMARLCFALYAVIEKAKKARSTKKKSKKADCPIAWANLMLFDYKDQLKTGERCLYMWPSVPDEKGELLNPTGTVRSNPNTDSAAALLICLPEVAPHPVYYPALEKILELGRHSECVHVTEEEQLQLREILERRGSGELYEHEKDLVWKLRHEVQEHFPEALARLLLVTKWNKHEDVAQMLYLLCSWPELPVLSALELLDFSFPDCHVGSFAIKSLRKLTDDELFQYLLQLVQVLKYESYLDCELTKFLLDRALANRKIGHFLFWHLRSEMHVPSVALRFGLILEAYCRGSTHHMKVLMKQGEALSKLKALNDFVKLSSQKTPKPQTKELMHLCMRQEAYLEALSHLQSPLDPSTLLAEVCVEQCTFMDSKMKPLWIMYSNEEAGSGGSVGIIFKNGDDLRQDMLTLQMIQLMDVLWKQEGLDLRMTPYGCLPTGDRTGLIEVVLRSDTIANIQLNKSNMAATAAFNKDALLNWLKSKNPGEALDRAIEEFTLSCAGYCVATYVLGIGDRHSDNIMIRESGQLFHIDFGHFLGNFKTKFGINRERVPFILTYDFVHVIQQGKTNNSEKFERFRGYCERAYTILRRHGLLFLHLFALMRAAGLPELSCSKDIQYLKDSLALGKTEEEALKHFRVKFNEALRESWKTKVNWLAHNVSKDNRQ
T1 sequence (P27986 whole entry partner): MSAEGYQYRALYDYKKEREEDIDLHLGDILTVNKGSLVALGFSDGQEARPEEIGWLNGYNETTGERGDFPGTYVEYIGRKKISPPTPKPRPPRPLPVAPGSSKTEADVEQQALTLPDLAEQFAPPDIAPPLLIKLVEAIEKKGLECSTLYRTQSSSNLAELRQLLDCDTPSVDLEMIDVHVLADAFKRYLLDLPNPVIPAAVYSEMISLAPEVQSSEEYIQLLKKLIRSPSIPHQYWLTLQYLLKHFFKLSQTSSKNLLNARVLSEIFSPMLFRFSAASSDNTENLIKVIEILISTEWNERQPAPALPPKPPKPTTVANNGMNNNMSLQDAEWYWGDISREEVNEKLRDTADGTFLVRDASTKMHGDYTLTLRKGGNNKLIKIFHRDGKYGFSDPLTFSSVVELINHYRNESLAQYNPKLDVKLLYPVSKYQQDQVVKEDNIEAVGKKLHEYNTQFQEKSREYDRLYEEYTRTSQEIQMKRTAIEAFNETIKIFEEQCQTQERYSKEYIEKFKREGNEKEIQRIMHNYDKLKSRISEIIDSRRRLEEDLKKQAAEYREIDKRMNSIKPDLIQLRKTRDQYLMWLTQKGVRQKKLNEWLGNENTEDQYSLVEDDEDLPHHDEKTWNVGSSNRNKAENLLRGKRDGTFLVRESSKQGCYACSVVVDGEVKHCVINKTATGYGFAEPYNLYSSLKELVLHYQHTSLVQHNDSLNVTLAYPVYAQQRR
T2 sequence (P42338 whole entry): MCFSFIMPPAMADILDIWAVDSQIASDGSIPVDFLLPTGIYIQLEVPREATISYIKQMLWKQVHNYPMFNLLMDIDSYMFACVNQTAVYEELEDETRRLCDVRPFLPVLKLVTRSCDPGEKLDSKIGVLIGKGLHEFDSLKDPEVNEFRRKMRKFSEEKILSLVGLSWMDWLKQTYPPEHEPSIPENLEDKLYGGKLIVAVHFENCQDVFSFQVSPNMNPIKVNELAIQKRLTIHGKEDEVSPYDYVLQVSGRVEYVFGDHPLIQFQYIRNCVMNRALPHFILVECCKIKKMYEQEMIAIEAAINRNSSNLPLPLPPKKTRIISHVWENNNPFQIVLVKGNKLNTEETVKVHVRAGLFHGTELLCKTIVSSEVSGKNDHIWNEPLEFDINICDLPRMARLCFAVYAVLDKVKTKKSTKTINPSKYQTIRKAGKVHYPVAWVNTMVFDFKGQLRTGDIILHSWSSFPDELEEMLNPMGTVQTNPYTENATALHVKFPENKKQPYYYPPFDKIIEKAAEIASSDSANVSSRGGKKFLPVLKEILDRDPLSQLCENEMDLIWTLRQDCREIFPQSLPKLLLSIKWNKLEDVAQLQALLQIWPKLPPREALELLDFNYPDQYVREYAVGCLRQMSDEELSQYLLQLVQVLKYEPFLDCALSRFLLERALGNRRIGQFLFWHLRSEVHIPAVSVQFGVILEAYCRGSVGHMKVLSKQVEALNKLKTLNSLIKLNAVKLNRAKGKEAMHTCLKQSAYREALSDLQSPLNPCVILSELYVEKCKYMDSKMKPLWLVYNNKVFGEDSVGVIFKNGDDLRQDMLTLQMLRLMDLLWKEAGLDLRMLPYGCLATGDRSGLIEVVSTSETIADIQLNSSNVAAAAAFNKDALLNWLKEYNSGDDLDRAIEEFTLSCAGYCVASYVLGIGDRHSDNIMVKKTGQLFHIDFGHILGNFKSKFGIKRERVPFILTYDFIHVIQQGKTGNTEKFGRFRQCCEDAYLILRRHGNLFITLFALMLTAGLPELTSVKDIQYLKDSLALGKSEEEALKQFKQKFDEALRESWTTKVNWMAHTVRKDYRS
T2 sequence (P27986 whole entry partner): as the sequence (P27986 whole entry partner) above

With `C[C@H](Nc1nc(N)nc(N)c1C#N)c1nc2cccc(Cl)c2c(=O)n1C1C[C@H]2CC[C@@H](C1)N2C` (stereo partly drawn) [Compound 4, 2,4-diamino-6-(((1S)-1-(5-chloro-3-((1R,5S)-8-methyl-8-azabicyclo[3.2.1]octan-3-yl)-4-oxo-3,4-dihydroquinazolin-2-yl)ethyl)amino)pyrimidine-5-carbonitrile], the figures for the pIC50 on PI3Kδ, at PI3Kβ and at PI3Kγ were 7.09, 6.54 and under 5.00, respectively.
For the compound `C[C@H](Nc1ncnc2scnc12)c1nc2cccc(Cl)c2c(=O)n1C1CCNCC1` [Compound 18, (S)-5-chloro-3-(piperidin-4-yl)-2-(1-(thiazolo[5,4-d]pyrimidin-7-ylamino)ethyl)quinazolin-4(3H)-one], the pIC50 is 8.05 on PI3Kδ, 7.20 at PI3Kβ and under 5.00 at PI3Kγ.
As for `N#Cc1c(N)nc(N)nc1N[C@H](c1nc2cccc(Cl)c2c(=O)n1N1CCN(Cc2ccccc2)CC1)C1CC1` [Compound 93, (S)-2,4-diamino-6-(((3-(4-benzylpiperazin-1-yl)-5-chloro-4-oxo-3,4-dihydroquinazolin-2-yl)(cyclopropyl)methyl)amino)pyrimidine-5-carbonitrile], the pIC50 is 7.74 on PI3Kδ, 7.32 on PI3Kβ and 5.89 at PI3Kγ.
The like results for `CC[C@H](Nc1nc(N)nc(C)c1C#N)c1nc2cccc(Cl)c2c(=O)n1C1CCNCC1` [Compound 23, (S)-2-amino-4-((1-(5-chloro-4-oxo-3-(piperidin-4-yl)-3,4-dihydroquinazolin-2-yl)propyl)amino)-6-methylpyrimidine-5-carbonitrile] were, in that order, 8.30, 8.52 and under 5.00.
The corresponding values for `C[C@H](Nc1ncnn2ccnc12)c1nc2cccc(Cl)c2c(=O)n1C1CCCNCC1` (stereo partly drawn) [Compound 82, 3-(azepan-4-yl)-5-chloro-2-((S)-1-(imidazo[2,1-f][1,2,4]triazin-4-ylamino)ethyl)quinazolin-4(3H)-one] are 7.66, 6.32 and under 5.00.
As to `C[C@H](Nc1ncnc(N)c1C#N)c1nc2cccc(Cl)c2c(=O)n1N1CCNC(C(F)(F)F)C1` (stereo partly drawn) [Compound 62, 4-amino-6-(((1S)-1-(5-chloro-4-oxo-3-(3-(trifluoromethyl)piperazin-1-yl)-3,4-dihydroquinazolin-2-yl)ethyl)amino)pyrimidine-5-carbonitrile], the pIC50 on PI3Kδ is 8.05; at PI3Kβ, 6.09; on PI3Kγ, 5.08.
As to `C[C@H](Nc1nc(N)nc(N)c1C#N)c1nc2cccc(Cl)c2c(=O)n1C1CCN(CC(F)(F)F)CC1` [Compound 100, (S)-2,4-diamino-6-((1-(5-chloro-4-oxo-3-(1-(2,2,2-trifluoroethyl)piperidin-4-yl)-3,4-dihydroquinazolin-2-yl)ethyl)amino)pyrimidine-5-carbonitrile], the pIC50 on PI3Kδ is 7.82; on PI3Kβ, 6.01; on PI3Kγ, 5.89.
The corresponding values for `C[C@H](Nc1nc(N)nc(Cl)c1C#N)c1nc2cccc(Cl)c2c(=O)n1N1CCN(CC(F)F)CC1` [Compound 113, (S)-2-amino-4-chloro-6-((1-(5-chloro-3-(4-(2,2-difluoroethyl)piperazin-1-yl)-4-oxo-3,4-dihydroquinazolin-2-yl)ethyl)amino)pyrimidine-5-carbonitrile] are 7.38, 6.22 and 5.89.
The like results for `C[C@H](Nc1nc(N)nc(N)c1C#N)c1nc2cccc(Cl)c2c(=O)n1[C@@H]1CCCNCC1` [Compound 9, 2,4-diamino-6-(((S)-1-(3-((R)-azepan-4-yl)-5-chloro-4-oxo-3,4-dihydroquinazolin-2-yl)ethyl)amino)pyrimidine-5-carbonitrile] were, in that order, 8.70, 8.05 and under 5.00.
The corresponding values for `C[C@H](Nc1ncnc2scnc12)c1nc2cccc(Cl)c2c(=O)n1N1CCN(CC(F)F)CC1` [Compound 115, (S)-5-chloro-3-(4-(2,2-difluoroethyl)piperazin-1-yl)-2-(1-(thiazolo[5,4-d]pyrimidin-7-ylamino)ethyl)quinazolin-4(3H)-one] are 7.43, 5.74 and 5.28.
For the compound `C[C@H](Nc1ncnc2scnc12)c1nc2c(Cl)ccc(Cl)c2c(=O)n1N1CCNCC1` [Compound 49, (S)-5,8-dichloro-3-(piperazin-1-yl)-2-(1-(thiazolo[5,4-d]pyrimidin-7-ylamino)ethyl)quinazolin-4(3H)-one], the pIC50 on PI3Kδ is 8.70; at PI3Kβ, 7.72; at PI3Kγ, under 5.00.
With `CC[C@H](Nc1nc(N)nc(N)c1C#N)c1nc2cccc(Cl)c2c(=O)n1N1CCN(Cc2ccc(C(F)(F)F)cc2)CC1` [Compound 87, (S)-2,4-diamino-6-((1-(5-chloro-4-oxo-3-(4-(4-(trifluoromethyl)benzyl)piperazin-1-yl)-3,4-dihydroquinazolin-2-yl)propyl)amino)pyrimidine-5-carbonitrile], the figures for the pIC50 at PI3Kδ, at PI3Kβ and at PI3Kγ were 7.24, 5.00 and under 5.00, respectively.
With `C[C@H](Nc1nc(N)nc(N)c1C#N)c1nc2c(F)ccc(Cl)c2c(=O)n1C1[C@H]2CNC[C@@H]12` (stereo in doubt) [Compound 17, 4-(((1S)-1-(3-((1R,5S)-3-azabicyclo[3.1.0]hexan-6-yl)-5-chloro-8-fluoro-4-oxo-3,4-dihydroquinazolin-2-yl)ethyl)amino)-2,6-diaminopyrimidine-5-carbonitrile], the negative-log IC50 (pIC50) is 8.40 on PI3Kδ, 8.52 at PI3Kβ and 5.55 at PI3Kγ.
The corresponding values for `C[C@H](Nc1nc(N)nc(N)c1C#N)c1nc2cccc(Cl)c2c(=O)n1C1CCNCC1` [Compound 26, (S)-2,4-diamino-6-((1-(5-chloro-4-oxo-3-(piperidin-4-yl)-3,4-dihydroquinazolin-2-yl)ethyl)amino)pyrimidine-5-carbonitrile] are 8.70, 8.70 and under 5.00.
The corresponding values for `C[C@H](Nc1nc(N)nc(N)c1C#N)c1nc2cccc(Cl)c2c(=O)n1C1CCN(Cc2ccccc2)CC1` [Compound 101, (S)-2,4-diamino-6-((1-(3-(1-benzylpiperidin-4-yl)-5-chloro-4-oxo-3,4-dihydroquinazolin-2-yl)ethyl)amino)pyrimidine-5-carbonitrile] are 7.68, 7.36 and 5.38.
The corresponding values for `CC[C@H](Nc1nc(N)nc(C)c1C#N)c1nc2cccc(Cl)c2c(=O)n1N1CCN(Cc2ccc(C(F)(F)F)cc2)CC1` [Compound 89, (S)-2-amino-4-((1-(5-chloro-4-oxo-3-(4-(4-(trifluoromethyl)benzyl)piperazin-1-yl)-3,4-dihydroquinazolin-2-yl)propyl)amino)-6-methylpyrimidine-5-carbonitrile] are 7.30, 5.35 and under 5.00.
As to `CN1CCN(n2c([C@@H](Nc3nc(N)nc(N)c3C#N)C3CC3)nc3cccc(Cl)c3c2=O)CC1` [Compound 1, (S)-2,4-diamino-6-(((5-chloro-3-(4-methylpiperazin-1-yl)-4-oxo-3,4-dihydroquinazolin-2-yl)(cyclopropyl)methyl)amino)pyrimidine-5-carbonitrile], the values for the pIC50 on PI3Kδ, at PI3Kβ and on PI3Kγ were 7.68, 7.52 and 5.76, respectively.
The corresponding values for `C[C@H](Nc1ncnc2[nH]cnc12)c1nc2cccc(Cl)c2c(=O)n1C1CCN(C)CC1` [Compound 120, (S)-2-(1-((9H-purin-6-yl)amino)ethyl)-5-chloro-3-(1-methylpiperidin-4-yl)quinazolin-4(3H)-one] are 7.85, 5.92 and under 5.00.
The corresponding values for `N#Cc1c(N)nc(N)nc1N1CCC[C@@H]1c1nc2cccc(F)c2c(=O)n1N1CCN(Cc2ccccc2)CC1` (stereo in doubt) [Compound 124, (R)-2,4-diamino-6-(2-(3-(4-benzylpiperazin-1-yl)-5-fluoro-4-oxo-3,4-dihydroquinazolin-2-yl)pyrrolidin-1-yl)pyrimidine-5-carbonitrile] are 6.41, 5.89 and under 5.00.
Take `C[C@H](NC(=O)c1nc(Cl)cnc1N)c1nc2cccc(Cl)c2c(=O)n1N1CCNCC1` [Compound 32, (S)-3-amino-6-chloro-N-(1-(5-chloro-4-oxo-3-(piperazin-1-yl)-3,4-dihydroquinazolin-2-yl)ethyl)pyrazine-2-carboxamide]: the values for the pIC50 on PI3Kδ, at PI3Kβ and on PI3Kγ were 6.82, 7.49 and under 5.00, respectively.
The like results for `CC[C@H](Nc1ncnn2ccnc12)c1nc2cccc(Cl)c2c(=O)n1N1CCNCC1` [Compound 42, (S)-5-chloro-2-(1-(imidazo[2,1-f][1,2,4]triazin-4-ylamino)propyl)-3-(piperazin-1-yl)quinazolin-4(3H)-one] were, in that order, 8.10, 7.35 and under 5.00.
The like results for `C[C@H](Nc1ncnc2[nH]cc(Br)c12)c1nc2cccc(Cl)c2c(=O)n1N1CCNCC1` [Compound 69, (S)-2-(1-((5-bromo-7H-pyrrolo[2,3-d]pyrimidin-4-yl)amino)ethyl)-5-chloro-3-(piperazin-1-yl)quinazolin-4(3H)-one] were, in that order, 9.00, 8.52 and 5.13.
